# In US9416353B2, “Covalent tethering of functional groups to proteins and substrates therefor” (Promega Corporation, priority 2004, dated 2016):
# Legend:
# CHO-K1 cells [1] = assay: Toxicity of Cl-alkanes, CellTiter-Glo Luminescence Cell Viability Assay; type: cell-based
# Method: To study the toxicity of Cl-alkanes, CHO-K1 cells were plated in 96 well plates to a density of 5,000 cells per well. […] Viability of the cells was measured with CellTiter-Glo™ Luminescence Cell Viability Assay (Promega) according to the manufacturer's protocol. Generally, 100 μl of CellTiter-Glo™ reagent was added directly to the cells and the luminescence was recorded at 10 minutes using a DYNEX MLX microtiter plate luminometer.
# CHO-K1 cells [2] = assay: Permeability of cell membrane to substrates (uptake and wash-out, fluorescence); type: cell-based; details: 100 μM, 60 minutes
# Method: CHO-K1 Cells (ATCC-CCL61) were cultured in a 1:1 mixture of Ham's F12 nutrients and Dulbecco's modified minimal essential medium supplemented with 10% fetal bovine serum (FBS), 100 U/ml penicillin, and […] streptomycin, in an atmosphere of 95% air and 5% CO2 at 37° C.
# DhaA.H272F = DhaA.H272F (Rhodococcus rhodochrous, UniProt P0A3G2, H272F); type: binding; details: dose dependent, HRP conjugated streptavidin
molecule,measurement,setting,value
N-{2-[2-(6-Chlorohexyloxy)-ethoxy]-ethyl}-tetramethylrhodamine-5-(and -6)-amide,toxicity on CHO-K1 cells,CHO-K1 cells [1]; 4 hour treatment at 100 μM (highest concentration tested),no toxicity
O=C(NCCOCCOCCCCCCCl)c1ccc(-c2c3ccc(=O)cc-3oc3cc(O)ccc23)c(C(=O)O)c1 [N-{2-[2-(6-Chlorohexyloxy)-ethoxy]-ethyl}-fluorescein-5-amide],crossing of the plasma membrane of CHO-K1 cells,CHO-K1 cells [2],did not cross the plasma membrane
"O=C(CCCC[C@@H]1SC[C@@H]2NC(=O)N[C@@H]21)NCCOCCOCCCCCCCl [biotin-C10H21NO2—Cl, N-{2-[2-(6-Chlorohexyloxy)-ethoxy]ethyl}-biotin-amide]",toxicity on CHO-K1 cells,CHO-K1 cells [1]; 24 hours of treatment at 100 μM,No toxicity
same,concentration at which binding could be detected,DhaA.H272F,0.2 µM
